Columns and labels:
Settings in all cases: 48 h
P12-Ichikawa [1] = test: AUC of viability dose-response curve (% viability x log10 dose units); higher = less sensitive
Summary of the method: (§1)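 Over 48 h at 37°C, leukemia cells in 1536-well plates (500 or 1000 cells/well), adapted to each medium, received library compounds in DMSO at 11 threefold doses from 47 μM to 0.79 nM. CellTiter-Glo One luminescence, normalised per plate to DMSO and cell-free wells, was fitted by a four-parameter log-logistic function of log10 dose. The area under the curve was then integrated by trapezoidal rule, after scaling curves above full viability and removing those that failed quality control.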

NOMO1 [2] = test: as above
Summary of the method: as §1

SEM cells [3] = test: as above
Summary of the method: as §1

P12-Ichikawa [4] = test: cell viability relative to DMSO control; higher = less cytotoxic
Summary of the method: (§2)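 NOMO1 or SEM (500 cells/well) or P12-Ichikawa (1000 cells/well) leukemia cells were adapted for at least four passages in each medium. They were seeded in 1536-well plates (5 μl) and pin-dosed with library compounds in DMSO over an 11-point threefold series, 47 μM to 0.79 nM. CellTiter-Glo One luminescence was read after 48 h at 37°C. Viability is the per-plate percentage relative to DMSO wells, with cell-free wells as background.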

NOMO1 [5] = test: as above
Summary of the method: as §2

SEM cells [6] = test: as above
Summary of the method: as §2

COC(=O)[C@@H](N)CCCNC(=N)N[N+](=O)[O-]
AUC of viability dose-response curve
Settings	NOMO1 [2]	P12-Ichikawa [1]	SEM cells [3]
HPLM + 10% dialyzed FBS	467	452	426
RPMI 5 mM glucose + 10% FBS	427	462	444
RPMI 5 mM glucose + 10% dialyzed FBS	461	452	432

cell viability [%]
Settings	NOMO1 [5]	P12-Ichikawa [4]	SEM cells [6]
HPLM + 10% dialyzed FBS, 0.000781 µM	92.9	94.6	82
HPLM + 10% dialyzed FBS, 0.00234 µM	97.2	102	37.9
HPLM + 10% dialyzed FBS, 0.00702 µM	105	104	89.1
HPLM + 10% dialyzed FBS, 0.0211 µM	88	98.4	96.1
HPLM + 10% dialyzed FBS, 0.0632 µM	103	111	94.3
HPLM + 10% dialyzed FBS, 0.19 µM	118	98.1	95.1
HPLM + 10% dialyzed FBS, 0.569 µM	99.1	110	87.2
HPLM + 10% dialyzed FBS, 1.71 µM	96.7	107	110
HPLM + 10% dialyzed FBS, 5.12 µM	104	107	93.1
HPLM + 10% dialyzed FBS, 15.4 µM	93.9	103	89.9
HPLM + 10% dialyzed FBS, 46.1 µM	103	115	95.2
RPMI 5 mM glucose + 10% FBS, 0.000781 µM	90	85.4	95.5
RPMI 5 mM glucose + 10% FBS, 0.00234 µM	85.6	96.7	39.2
RPMI 5 mM glucose + 10% FBS, 0.00702 µM	96.3	99	90.7
RPMI 5 mM glucose + 10% FBS, 0.0211 µM	88.9	94	92.1
RPMI 5 mM glucose + 10% FBS, 0.0632 µM	86.9	105	95.2
RPMI 5 mM glucose + 10% FBS, 0.19 µM	86.3	98.5	102
RPMI 5 mM glucose + 10% FBS, 0.569 µM	92.4	114	90.3
RPMI 5 mM glucose + 10% FBS, 1.71 µM	88.1	103	101
RPMI 5 mM glucose + 10% FBS, 5.12 µM	92.6	105	104
RPMI 5 mM glucose + 10% FBS, 15.4 µM	93.3	99.3	104
RPMI 5 mM glucose + 10% FBS, 46.1 µM	102	105	101
RPMI 5 mM glucose + 10% dialyzed FBS, 0.000781 µM	76.9	85.9	85.1
RPMI 5 mM glucose + 10% dialyzed FBS, 0.00234 µM	96.3	93	26.2
RPMI 5 mM glucose + 10% dialyzed FBS, 0.00702 µM	93.8	90.7	78
RPMI 5 mM glucose + 10% dialyzed FBS, 0.0211 µM	95.7	97.5	89.3
RPMI 5 mM glucose + 10% dialyzed FBS, 0.0632 µM	97.4	99.2	101
RPMI 5 mM glucose + 10% dialyzed FBS, 0.19 µM	103	91.5	84.8
RPMI 5 mM glucose + 10% dialyzed FBS, 0.569 µM	97.9	99.7	99
RPMI 5 mM glucose + 10% dialyzed FBS, 1.71 µM	93.4	98.6	108
RPMI 5 mM glucose + 10% dialyzed FBS, 5.12 µM	94.2	95.9	101
RPMI 5 mM glucose + 10% dialyzed FBS, 15.4 µM	101	92	107
RPMI 5 mM glucose + 10% dialyzed FBS, 46.1 µM	105	94	104

COc1cccc2c1C(=O)c1c(O)c3c(c(O)c1C2=O)C[C@@](O)(C(C)=O)C[C@@H]3O[C@H]1C[C@H](N)[C@H](O)[C@H](C)O1
AUC of viability dose-response curve
Settings	NOMO1 [2]	P12-Ichikawa [1]	SEM cells [3]
HPLM + 10% dialyzed FBS	265	274	192
RPMI 5 mM glucose + 10% FBS	262	264	190
RPMI 5 mM glucose + 10% dialyzed FBS	259	263	209

cell viability [%]
Settings	NOMO1 [5]	P12-Ichikawa [4]	SEM cells [6]
HPLM + 10% dialyzed FBS, 0.000781 µM	98.6	107	74.5
HPLM + 10% dialyzed FBS, 0.00234 µM	107	112	83.9
HPLM + 10% dialyzed FBS, 0.00702 µM	108	115	85.3
HPLM + 10% dialyzed FBS, 0.0211 µM	114	109	90.3
HPLM + 10% dialyzed FBS, 0.0632 µM	111	114	55.3
HPLM + 10% dialyzed FBS, 0.19 µM	81.5	101	25.3
HPLM + 10% dialyzed FBS, 0.569 µM	12.4	6.62	7.3
HPLM + 10% dialyzed FBS, 1.71 µM	7.35	7.98	7.11
HPLM + 10% dialyzed FBS, 5.12 µM	5.97	8.25	6.71
HPLM + 10% dialyzed FBS, 15.4 µM	5.19	9.65	7.18
HPLM + 10% dialyzed FBS, 46.1 µM	4.98	8.17	5.34
RPMI 5 mM glucose + 10% FBS, 0.000781 µM	99	94.8	82.3
RPMI 5 mM glucose + 10% FBS, 0.00234 µM	104	112	98.4
RPMI 5 mM glucose + 10% FBS, 0.00702 µM	106	113	91.9
RPMI 5 mM glucose + 10% FBS, 0.0211 µM	99.2	104	77.3
RPMI 5 mM glucose + 10% FBS, 0.0632 µM	108	103	40
RPMI 5 mM glucose + 10% FBS, 0.19 µM	78.6	73.2	21.8
RPMI 5 mM glucose + 10% FBS, 0.569 µM	9.07	7.42	7.4
RPMI 5 mM glucose + 10% FBS, 1.71 µM	4.79	7.61	7.93
RPMI 5 mM glucose + 10% FBS, 5.12 µM	4.48	7.8	7.89
RPMI 5 mM glucose + 10% FBS, 15.4 µM	5.23	7.04	7.75
RPMI 5 mM glucose + 10% FBS, 46.1 µM	3.6	9.59	6.05
RPMI 5 mM glucose + 10% dialyzed FBS, 0.000781 µM	91.6	102	88.6
RPMI 5 mM glucose + 10% dialyzed FBS, 0.00234 µM	113	107	89
RPMI 5 mM glucose + 10% dialyzed FBS, 0.00702 µM	107	107	96.2
RPMI 5 mM glucose + 10% dialyzed FBS, 0.0211 µM	115	106	84.3
RPMI 5 mM glucose + 10% dialyzed FBS, 0.0632 µM	108	98	59.2
RPMI 5 mM glucose + 10% dialyzed FBS, 0.19 µM	73.4	70.8	29.4
RPMI 5 mM glucose + 10% dialyzed FBS, 0.569 µM	9.73	8.12	9.48
RPMI 5 mM glucose + 10% dialyzed FBS, 1.71 µM	6.25	7.49	8.29
RPMI 5 mM glucose + 10% dialyzed FBS, 5.12 µM	4.58	7.97	8.52
RPMI 5 mM glucose + 10% dialyzed FBS, 15.4 µM	4.86	7.6	8.22
RPMI 5 mM glucose + 10% dialyzed FBS, 46.1 µM	4.92	8.42	6.01

CC(C)C[C@H](NC(=O)[C@H](Cc1ccccc1)NC(=O)c1cnccn1)B(O)O
AUC of viability dose-response curve
Settings	NOMO1 [2]	P12-Ichikawa [1]	SEM cells [3]
HPLM + 10% dialyzed FBS	182	173	138
RPMI 5 mM glucose + 10% FBS	171	173	147
RPMI 5 mM glucose + 10% dialyzed FBS	181	171	129

cell viability [%]
Settings	NOMO1 [5]	P12-Ichikawa [4]	SEM cells [6]
HPLM + 10% dialyzed FBS, 0.000781 µM	99.7	96.4	82.8
HPLM + 10% dialyzed FBS, 0.00234 µM	106	92.9	88.2
HPLM + 10% dialyzed FBS, 0.00702 µM	108	106	95.9
HPLM + 10% dialyzed FBS, 0.0211 µM	119	106	46.6
HPLM + 10% dialyzed FBS, 0.0632 µM	21.6	4.77	5.6
HPLM + 10% dialyzed FBS, 0.19 µM	3.62	2.92	4.11
HPLM + 10% dialyzed FBS, 0.569 µM	4.25	2.65	3.83
HPLM + 10% dialyzed FBS, 1.71 µM	2.64	2.46	3.37
HPLM + 10% dialyzed FBS, 5.12 µM	2.22	1.35	2.58
HPLM + 10% dialyzed FBS, 15.4 µM	1.08	0.316	1.95
HPLM + 10% dialyzed FBS, 46.1 µM	0.274	-0.93	1.04
RPMI 5 mM glucose + 10% FBS, 0.000781 µM	83.7	93.4	90.9
RPMI 5 mM glucose + 10% FBS, 0.00234 µM	91.4	103	102
RPMI 5 mM glucose + 10% FBS, 0.00702 µM	99	107	113
RPMI 5 mM glucose + 10% FBS, 0.0211 µM	96.6	101	38.4
RPMI 5 mM glucose + 10% FBS, 0.0632 µM	21.6	4.71	6.07
RPMI 5 mM glucose + 10% FBS, 0.19 µM	6.12	2.56	3.74
RPMI 5 mM glucose + 10% FBS, 0.569 µM	2.91	2.17	3.71
RPMI 5 mM glucose + 10% FBS, 1.71 µM	1.66	1.91	3.19
RPMI 5 mM glucose + 10% FBS, 5.12 µM	1.61	1.36	2.6
RPMI 5 mM glucose + 10% FBS, 15.4 µM	1.02	0.651	1.56
RPMI 5 mM glucose + 10% FBS, 46.1 µM	-0.312	-0.626	0.977
RPMI 5 mM glucose + 10% dialyzed FBS, 0.000781 µM	94.5	88.6	90.4
RPMI 5 mM glucose + 10% dialyzed FBS, 0.00234 µM	101	105	84.7
RPMI 5 mM glucose + 10% dialyzed FBS, 0.00702 µM	98.4	99	84.5
RPMI 5 mM glucose + 10% dialyzed FBS, 0.0211 µM	116	102	31.1
RPMI 5 mM glucose + 10% dialyzed FBS, 0.0632 µM	17	4.76	6.17
RPMI 5 mM glucose + 10% dialyzed FBS, 0.19 µM	5	2.71	4.26
RPMI 5 mM glucose + 10% dialyzed FBS, 0.569 µM	3.79	2.62	4.12
RPMI 5 mM glucose + 10% dialyzed FBS, 1.71 µM	3	1.7	3.78
RPMI 5 mM glucose + 10% dialyzed FBS, 5.12 µM	1.75	1.34	3.01
RPMI 5 mM glucose + 10% dialyzed FBS, 15.4 µM	1.72	0.782	2.1
RPMI 5 mM glucose + 10% dialyzed FBS, 46.1 µM	-0.0281	-0.254	1.1

Source: the supplement of paper PMC11451515
